Tests used:
[1] = target: T1, DGK α kinase (Homo sapiens, UniProt P23743); assay: DGKalpha kinase ADP Glo assay run by Reaction Biology Corp.; assay type: biochemical; settings: 2 nM kinase, 50 µM ATP, 500 μM DLG, 10-dose duplicate
T1 construct: purchased Reaction Biology Corp. (contract assay service)
Description: DGK α and ζ kinases use ATP to phosphorylate the substrate 1,2-dilauroyl-sn-glycerol (DLG). ATP is converted to ADP as a result of this enzymatic reaction.
After the kinase reaction, an ATP-depletion reagent is added to terminate the kinase reaction and deplete any remaining ATP, leaving only ADP. Second, a detection reagent is added to simultaneously convert ADP to ATP and allow the newly synthesized ATP to be converted to light using a coupled luciferase/luciferin reaction.
DGK α and ζ kinase ADP Glo assays were ran by Reaction Biology Corp., 1 Great Valley Parkway, Suite 2, Malvern, 19355, PA, USA. Information provided by the service provider are the following: DGK α and ζ kinases were used at 2 nM final concentration. Reactions were carried out at 50 µM ATP. 500 μM of the substrate DLG (Dilauroyl-sn-glycerol) was used.

[2] = tested on: primary human T-cells; assay: Proliferation assay (5 days, CellTiter-Glo, CD3-stimulated T-cells); assay type: cell-based; settings: for Emax proliferation (% activation): CD3 condition, normalised to DMSO (neutral) and 20 μM reference compound A1 = 100%; for EC50: Homo sapiens, T-cell, 120 h, CD3-stimulated primary human T-cells, 5 days, CellTiter-Glo, fitted sigmoidal curve, read-out: Tcell Proliferation CD3 EC50
Method in brief: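 Expanded primary human T-cells, 100 k cells/well, were stimulated with plate-coated CD3 antibody (donor-titrated) and given compound in a 5 or 6 pt dose response from 20 μM or 10 μM final top, 0.2% DMSO final. ATP was read by CellTiter-Glo after 5 days. EC50 and Emax were reported as % of 20 μM reference compound A1.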

T1 sequence (P23743 whole entry): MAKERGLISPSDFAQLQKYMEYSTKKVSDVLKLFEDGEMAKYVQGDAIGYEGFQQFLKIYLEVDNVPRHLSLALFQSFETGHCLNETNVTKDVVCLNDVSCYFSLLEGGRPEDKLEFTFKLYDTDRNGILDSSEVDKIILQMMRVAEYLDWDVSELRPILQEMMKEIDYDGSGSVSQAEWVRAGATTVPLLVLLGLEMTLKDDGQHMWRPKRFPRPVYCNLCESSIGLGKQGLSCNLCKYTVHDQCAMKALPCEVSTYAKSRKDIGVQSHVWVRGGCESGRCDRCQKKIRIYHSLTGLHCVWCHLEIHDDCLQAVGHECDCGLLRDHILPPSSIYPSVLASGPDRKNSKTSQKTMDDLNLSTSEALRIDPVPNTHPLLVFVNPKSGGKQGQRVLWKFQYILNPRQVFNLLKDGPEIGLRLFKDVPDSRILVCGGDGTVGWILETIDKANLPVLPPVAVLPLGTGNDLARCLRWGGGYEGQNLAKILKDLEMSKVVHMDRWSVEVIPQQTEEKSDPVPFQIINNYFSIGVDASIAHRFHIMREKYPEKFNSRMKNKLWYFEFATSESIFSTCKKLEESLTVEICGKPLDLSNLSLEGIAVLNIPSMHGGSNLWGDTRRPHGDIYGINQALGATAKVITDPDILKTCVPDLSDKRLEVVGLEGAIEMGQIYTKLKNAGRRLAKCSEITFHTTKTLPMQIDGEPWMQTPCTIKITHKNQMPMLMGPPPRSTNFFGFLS

Structure (SMILES) | IC50 [1] [nM] | Emax proliferation (% activation) [2] [% activation] | EC50 [2] [nM]
Cc1noc(-c2ccc(CN3C(=O)[C@@H](N)CS(=O)(=O)c4ccc(-c5nnc(C(C)(C)C)o5)cc43)cc2)n1 [Example 20, (3R)-3-amino-7-(5-tert-butyl-1,3,4-oxadiazol-2-yl)-5-[[4-(3-methyl-1,2,4-oxadiazol-5-yl)phenyl]methyl]-1,1-dioxo-2,3-dihydro-1λ^6,5-benzothiazepin-4-one] | 1410 | 82 | 2380
CC(C)(C#N)c1nnc(-c2ccc3c(c2)N(Cc2ccc(-c4ccc(C(F)(F)F)cn4)cc2)C(=O)[C@@H](N)CS3(=O)=O)o1 [Example 47] | 238 | 159 | 459
N[C@H]1CS(=O)(=O)c2ccc(-c3nnc(N4CCOC(F)(F)C4)o3)cc2N(Cc2ccc(-c3noc(C(F)(F)F)n3)cc2)C1=O [Example 78, (3R)-3-amino-7-[5-(2,2-difluoromorpholin-4-yl)-1,3,4-oxadiazol-2-yl]-1,1-dioxo-5-[[4-[5-(trifluoromethyl)-1,2,4-oxadiazol-3-yl]phenyl]methyl]-2,3-dihydro-1λ^6,5-benzothiazepin-4-one] | 105 | 150 | 1090
CC(C)(C#N)c1nnc(-c2ccc3c(c2)N(Cc2ccc(-c4ccc(OC(F)(F)F)cn4)cc2)C(=O)[C@@H](N)CS3(=O)=O)o1 [Example 124] | 23.3 | 153 | 114
COCCN1CC(c2nnc(-c3ccc4c(c3)N(Cc3ccc(-c5ccc(OC)cc5)cc3)C(=O)[C@@H](N)CS4(=O)=O)o2)CC(F)(F)C1 (stereo partly drawn) [Example 183, (3R)-3-amino-7-[5-[5,5-difluoro-1-(2-methoxyethyl)-3-piperidyl]-1,3,4-oxadiazol-2-yl]-5-[[4-(4-methoxyphenyl)phenyl]methyl]-1,1-dioxo-2,3-dihydro-1λ^6,5-benzothiazepin-4-one] | – | 156 | 1680

More lines, in order of falling IC50 [1], values ahead:

IC50 [1] [nM] | Structure (SMILES) | Emax proliferation (% activation) [2] [% activation] | EC50 [2] [nM]
226 | COc1ccc(-c2ccc(CN3C(=O)[C@@H](N)CS(=O)(=O)c4ccc(-c5nnc(N(C)CC(F)(F)F)o5)cc43)cc2)cc1 [Example 81, (3R)-3-amino-5-[[4-(4-methoxyphenyl)phenyl]methyl]-7-[5-[methyl(2,2,2-trifluoroethyl)amino]-1,3,4-oxadiazol-2-yl]-1,1-dioxo-2,3-dihydro-1λ^6,5-benzothiazepin-4-one] | 138 | 728
160 | C[C@](N)(c1nnc(-c2ccc3c(c2)N(Cc2ccc(-c4noc(C(F)(F)F)n4)cc2)C(=O)[C@@H](N)CS3(=O)=O)o1)C(F)(F)F [Example 53, (3R)-3-amino-7-[5-[(1S)-1-amino-2,2,2-trifluoro-1-methyl-ethyl]-1,3,4-oxadiazol-2-yl]-1,1-dioxo-5-[[4-[5-(trifluoromethyl)-1,2,4-oxadiazol-3-yl]phenyl]methyl]-2,3-dihydro-1λ^6,5-benzothiazepin-4-one] | 120 | 2220
63.6 | C[C@@](N)(c1nnc(-c2ccc3c(c2)N(Cc2ccc(-c4noc(C(F)(F)F)n4)cc2)C(=O)[C@@H](N)CS3(=O)=O)o1)C(F)(F)F [Example 52, (3R)-3-amino-7-[5-[(1R)-1-amino-2,2,2-trifluoro-1-methyl-ethyl]-1,3,4-oxadiazol-2-yl]-1,1-dioxo-5-[[4-[5-(trifluoromethyl)-1,2,4-oxadiazol-3-yl]phenyl]methyl]-2,3-dihydro-1λ^6,5-benzothiazepin-4-one] | 126 | 196

From patent US20260138976A1 (Hoffmann-La Roche Inc., priority 2022, published 2026)
